Assay results taken from PMC11590106, “Computational Model-Assisted Development of a Nonenzymatic Fluorescent Glucose-Sensing Assay” (ACS Sensors, 2024).

Columns and labels:
[1] = molecular target: T1, Concanavalin A (ConA) (Canavalia ensiformis, UniProt P02866); experiment: competitive fluorescence anisotropy, displacement of Cy5.5-mannotetraose from PEG-ConA; type: binding; set-up: ConA Type IV (Sigma), PEGylated (5 kDa mPEG)
[2] = molecular target: T1, Concanavalin A (ConA); experiment: fluorescence anisotropy titration (association constant Ka); type: binding; set-up: ConA Type IV (Sigma), PEGylated (5 kDa mPEG); tetramer treated as one protein

T1 sequence (P02866 164-281 limits assumed): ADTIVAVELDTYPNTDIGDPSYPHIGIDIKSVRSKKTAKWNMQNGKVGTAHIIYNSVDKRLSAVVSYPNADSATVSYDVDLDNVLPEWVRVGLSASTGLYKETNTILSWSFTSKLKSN
T1 sequence (P02866 30-148 limits assumed): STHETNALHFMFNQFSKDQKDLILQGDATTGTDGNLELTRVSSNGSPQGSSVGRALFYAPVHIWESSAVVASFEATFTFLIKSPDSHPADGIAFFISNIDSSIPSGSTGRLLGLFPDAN

OC[C@H]1OC(O)[C@H](O)[C@@H](O)[C@@H]1O (stereo partly drawn) [glucose]
competitive fluorescence anisotropy, displacement of Cy5.5-mannotetraose from PE [1]: a sensitive response of the assay was observed for various glucose concentrations within the physiological range

Cy5.5-mannobiose
fluorescence anisotropy titration (association constant Ka) [2]: 1.73 × 10^6 M^–1

Cy5.5-mannotriose
fluorescence anisotropy titration (association constant Ka) [2]: 5.33 × 10^6 M^–1
